Columns and labels:
Assay type in all cases: in vivo
Settings in all cases: evaluated after 13 days
[1] = test system: Amaranthus palmeri (AMAPA); assay: Pre-emergence Test, Amaranthus palmeri (AMAPA)
Zea mays (ZEAMX) [2] = assay: Post-emergence Test, Zea mays (ZEAMX); design: key to percentage damage caused to the plant, ZEAMX (five-point scale): 5=81-100%, 4=61-80%, 3=41-60%, 2=21-40%, 1=0-20% damage
Procedure, shortened: (§1)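 Application was a spray of acetone/water (50:50) with 0.5% Tween 20 onto pots of test species sown in standard soil. Unless otherwise stated, the rate was 1000 g/ha. After 13 days under glasshouse conditions (24/16 °C, 65% humidity), injury was scored from 1 (0-20%) to 5 (81-100%).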

[3] = test system: Amaranthus retoflexus (AMARE); assay: Post-emergence Test, Amaranthus retoflexus (AMARE); design: key to percentage damage caused to the plant, AMARE (five-point scale): 5=81-100%, 4=61-80%, 3=41-60%, 2=21-40%, 1=0-20% damage
Procedure, shortened: as §1

[4] = test system: Ipomoea hederacea (IPOHE); assay: Pre-emergence Test, Ipomoea hederacea (IPOHE)
[5] = test system: Ipomoea hederacea (IPOHE); assay: Post-emergence Test, Ipomoea hederacea (IPOHE); design: key to percentage damage caused to the plant, IPOHE (five-point scale): 5=81-100%, 4=61-80%, 3=41-60%, 2=21-40%, 1=0-20% damage
Procedure, shortened: as §1

[6] = test system: Echinochloa crus-galli (ECHCG); assay: Post-emergence Test, Echinochloa crus-galli (ECHCG); design: key to percentage damage caused to the plant, ECHCG (five-point scale): 5=81-100%, 4=61-80%, 3=41-60%, 2=21-40%, 1=0-20% damage
Procedure, shortened: as §1

[7] = test system: Amaranthus palmeri (AMAPA); assay: Post-emergence Test, Amaranthus palmeri (AMAPA); design: key: 5=81-100%, 4=61-80%, 3=41-60%, 2=21-40%, 1=0-20% damage
Procedure, shortened: as §1

Setaria faberi (SETFA) [8] = assay: Post-emergence Test, Setaria faberi (SETFA); design: key to percentage damage caused to the plant, SETFA (five-point scale): 5=81-100%, 4=61-80%, 3=41-60%, 2=21-40%, 1=0-20% damage
Procedure, shortened: as §1

[9] = test system: Amaranthus retoflexus (AMARE); assay: Pre-emergence Test, Amaranthus retoflexus (AMARE)
Zea mays (ZEAMX) [10] = assay: Pre-emergence Test, Zea mays (ZEAMX)
[11] = test system: Echinochloa crus-galli (ECHCG); assay: Pre-emergence Test, Echinochloa crus-galli (ECHCG)
Setaria faberi (SETFA) [12] = assay: Pre-emergence Test, Setaria faberi (SETFA)

| SMILES | Pre-emergence Test AMAPA, percentage damage caused to the plant (five-point scale) ([1]; 250 g/Ha (*)) | Pre-emergence Test AMAPA, percentage damage caused to the plant (five-point scale) ([1]; 1000 g/ha) | percentage damage caused to the plant, ZEAMX (five-point scale) (Zea mays (ZEAMX) [2]; 250 g/Ha) | percentage damage caused to the plant, ZEAMX (five-point scale) (Zea mays (ZEAMX) [2]; 1000 g/ha) | percentage damage caused to the plant, AMARE (five-point scale) ([3]; 250 g/Ha) | percentage damage caused to the plant, AMARE (five-point scale) ([3]; 1000 g/ha) | Pre-emergence Test IPOHE, percentage damage caused to the plant (five-point scale) ([4]; 250 g/Ha (*)) | Pre-emergence Test IPOHE, percentage damage caused to the plant (five-point scale) ([4]; 1000 g/ha) | percentage damage caused to the plant, IPOHE (five-point scale) ([5]; 1000 g/ha) | percentage damage caused to the plant, ECHCG (five-point scale) ([6]; 1000 g/ha) | percentage damage caused to the plant, AMAPA (five-point scale) ([7]; 1000 g/ha) | percentage damage caused to the plant, SETFA (five-point scale) (Setaria faberi (SETFA) [8]; 1000 g/ha) | Pre-emergence Test AMARE, percentage damage caused to the plant (five-point scale) ([9]; 250 g/Ha (*)) | Pre-emergence Test AMARE, percentage damage caused to the plant (five-point scale) ([9]; 1000 g/ha) | Pre-emergence Test ZEAMX, percentage damage caused to the plant (five-point scale) (Zea mays (ZEAMX) [10]; 250 g/Ha (*)) | Pre-emergence Test ZEAMX, percentage damage caused to the plant (five-point scale) (Zea mays (ZEAMX) [10]; 1000 g/ha) | Pre-emergence Test ECHCG, percentage damage caused to the plant (five-point scale) ([11]; 250 g/Ha (*)) | Pre-emergence Test ECHCG, percentage damage caused to the plant (five-point scale) ([11]; 1000 g/ha) | Pre-emergence Test SETFA, percentage damage caused to the plant (five-point scale) (Setaria faberi (SETFA) [12]; 250 g/Ha (*)) | Pre-emergence Test SETFA, percentage damage caused to the plant (five-point scale) (Setaria faberi (SETFA) [12]; 1000 g/ha) | also measured |
| --- | --- | --- | --- | --- | --- | --- | --- | --- | --- | --- | --- | --- | --- | --- | --- | --- | --- | --- | --- | --- | --- |
| CCOC(=O)c1c(-c2ccc(Cl)c(Cl)c2)n(CC)c(Cn2ccc(Cl)n2)cc1=O [Compound 3, ethyl 6-[(3-chloropyrazol-1-yl)methyl]-2-(3,4-dichlorophenyl)-1-ethyl-4-oxo-pyridine-3-carboxylate] | 0 | 0 | 0 | 2 (2=21-40%) | 1 (1=0-20%) | 1 (1=0-20%) | 0 | 0 | 2 (2=21-40%) | 3 (3=41-60%) | 2 (2=21-40%) | 3 (3=41-60%) | 0 | 1 (1=0-20%) | 0 | 0 | 1 (1=0-20%) | 4 (4=61-80%) | 1 (1=0-20%) | 5 (5=81-100%) | percentage damage caused to the plant, IPOHE (five-point scale) ([5]; 250 g/Ha): 4 (4=61-80%); percentage damage caused to the plant, ECHCG (five-point scale) ([6]; 250 g/Ha): 1 (1=0-20%); percentage damage caused to the plant, AMAPA (five-point scale) ([7]; 250 g/Ha): 1 (1=0-20%); percentage damage caused to the plant, SETFA (five-point scale) (Setaria faberi (SETFA) [8]; 250 g/Ha): 2 (2=21-40%) |
| CCn1c(Cn2ccc(Cl)n2)cc(=O)c(C(=O)O)c1-c1ccc(Cl)c(Cl)c1 [Compound 4, 6-[(3-chloropyrazol-1-yl)methyl]-2-(3,4-dichlorophenyl)-1-ethyl-4-oxo-pyridine-3-carboxylic acid] | 0 | 1 (1=0-20%) | 2 (2=21-40%) | 3 (3=41-60%) | 3 (3=41-60%) | 2 (2=21-40%) | 2 (2=21-40%) | 3 (3=41-60%) | 4 (4=61-80%) | 4 (4=61-80%) | 4 (4=61-80%) | 4 (4=61-80%) | 0 | 2 (2=21-40%) | 1 (1=0-20%) | 3 (3=41-60%) | 5 (5=81-100%) | 5 (5=81-100%) | 5 (5=81-100%) | 5 (5=81-100%) | percentage damage caused to the plant, ECHCG (five-point scale) ([6]; 250 g/Ha): 4 (4=61-80%); percentage damage caused to the plant, AMAPA (five-point scale) ([7]; 250 g/Ha): 3 (3=41-60%); percentage damage caused to the plant, SETFA (five-point scale) (Setaria faberi (SETFA) [8]; 250 g/Ha): 4 (4=61-80%) |
| CCn1c(Cn2cnc(Cl)n2)cc(=O)c(C(=O)O)c1-c1ccc(Cl)c(Cl)c1 [Compound 5, 6-[(3-chloro-1,2,4-triazol-1-yl)methyl]-2-(3,4-dichlorophenyl)-1-ethyl-4-oxo-pyridine-3-carboxylic acid] | 0 | 2 (2=21-40%) |  | 2 (2=21-40%) |  | 1 (1=0-20%) | 0 | 0 | 1 (1=0-20%) | 1 (1=0-20%) | 1 (1=0-20%) | 4 (4=61-80%) | 0 | 0 | 0 | 0 | 3 (3=41-60%) | 4 (4=61-80%) | 2 (2=21-40%) | 3 (3=41-60%) |  |

From patent US20250098679A1, “HERBICIDAL PYRIDONE DERIVATIVES” (SYNGENTA CROP PROTECTION AG, priority 2021, published 2025)
